Measured values taken from ChEMBL document CHEMBL1121794, “Octanol-physiological buffer distribution coefficients of lipophilic amines by reversed-phase high-performance liquid chromatography and their correlation with biological activity” (J Med Chem, 1981).

Experiments:
[1] = octanol/water
Description: Partition coefficient (logD, measured by HPLC, log k')

[2] = (§1) Partition coefficient (logD7.4); settings: octanol/water, pH 7.4
[3] = as §1; settings: octanol/water, pH 7.4; remark: listed apart in the source
[4] = not given; remark: listed apart in the source
[5] = not given; remark: listed apart in the source
[6] = not given; remark: listed apart in the source
[7] = not given; remark: listed apart in the source
[8] = physchem; settings: octanol/water, pH 7.4
[9] = not given; remark: listed apart in the source
[10] = not given; remark: listed apart in the source
[11] = not given; remark: listed apart in the source
[12] = not given; remark: listed apart in the source
[13] = as §1; assay type: physicochemical; settings: octanol/water, pH 7.4
[14] = physchem; settings: octanol/water
[15] = physchem; settings: octanol/water; remark: listed apart in the source
[16] = not given; remark: listed apart in the source
[17] = not given; remark: listed apart in the source
[18] = not given; remark: listed apart in the source
[19] = not given; remark: listed apart in the source
[20] = not given; remark: listed apart in the source
[21] = (§2) Partition coefficient (logD) (HPLC); assay type: physicochemical; settings: octanol/water
[22] = The compound was tested for its ability to inhibit Na+/K+ ATPase in rat brain.; assay type: tissue-based
[23] = species on record: Rattus norvegicus
Description: (§4) Apparent partition coefficient was measured as histamine releasing activity in rat mast cells.

[24] = as §2; assay type: physicochemical; settings: octanol/water; remark: listed apart in the source
[25] = as §2; assay type: physicochemical; settings: octanol/water; remark: listed apart in the source
[26] = (§3) logD (measured by HPLC) (as log k'); assay type: ADME
[27] = species on record: Rattus norvegicus; remark: listed apart in the source
Description: as §4

[28] = species on record: Rattus norvegicus; remark: listed apart in the source
[29] = target: Serum albumin (Bos taurus) (UniProt P02769); assay: BSA binding (log K)
[30] = as §3; assay type: ADME; remark: listed apart in the source
[31] = not given; remark: listed apart in the source
[32] = as §3; assay type: ADME; remark: listed apart in the source
[33] = not given; remark: listed apart in the source

SMILES | Log k' [1] | Log k' | logD [3] | Log k' [4] | Log k' [5] | Log k' [6] | Log k' [7] | logD [8] | Log k' [9] | Log k' [10] | Log k' [11] | Log k' [12] | logD [14] | logD [15] | Log k' [18] | Log k' [20] | other results
O=C(NC1CCN(CCc2c[nH]c3ccccc23)CC1)c1ccccc1 [INDORAMIN] | 0.858 | 0.413 | 2.313 | -0.055 | 0.536 | 0.348 | 0.536 | 2.28 | 0.297 | 1.049 | 0.136 | 1.028 |  |  |  |  | logD [2]: 2.27
c1ccc2nc3ccccc3cc2c1 [ACRIDINE] | 1.993 |  | 3.29 |  |  |  |  |  | 1.501 | 2.146 |  |  |  |  | 2.103 | 1.447 | Log k' [16]: 0.685; Log k' [17]: 0.775; Log k' [19]: 1.556
Cc1cccc(C)c1NC(=O)C1CCCCN1C (stereo not drawn) [MEPIVACAINE] | -0.098 |  | 1.27 |  |  |  |  |  | -0.564 | 0.051 |  |  | 1.22 | 1.26 | 0.008 | 0.008 | Log k' [16]: -0.492; Log k' [17]: -0.462; Log k' [19]: -0.429
CN1CCN(C2=Nc3cc(Cl)ccc3Nc3ccccc32)CC1 [CLOZAPINE] |  |  | 2.99 | 0.817 |  |  |  |  | 1.136 | 1.734 | 1.15 |  |  |  | 1.73 | 1.725 | logD [25]: 1.66; logD [21]: 1.4
O=[N+]([O-])c1ccccc1 [NITROBENZENE] | 0.564 |  | 1.88 |  |  |  |  |  |  |  |  |  |  |  |  |  | 
CN(C)CCCN1c2ccccc2Sc2ccc(Cl)cc21 [CHLORPROMAZINE] | 2.061 | 1.751 | 3.221 | 1.086 |  | 1.667 | 1.911 | 3.17 | 1.656 | 2.144 | 1.632 |  |  |  |  |  | Log k' [26]: 1.911; Papp [27]: 2.92; Log k' [33]: 2.144

More lines, main results first:

Log k' [1] | Log k' | logD [3] | Log k' [4] | Log k' [5] | Log k' [6] | Log k' [7] | logD [8] | Log k' [9] | Log k' [10] | Log k' [11] | Log k' [12] | logD [14] | logD [15] | Log k' [18] | SMILES | Log k' [20] | other results
1.044 | 0.778 | 2.22 | 0.33 | 1.025 | 0.642 | 1.025 | 2.2 | 0.632 | 1.115 | 0.886 | 1.086 | 2.36 | 2.32 |  | CN(C)CCC=C1c2ccccc2COc2ccccc21 [DOXEPIN] |  | logD [13]: 2.22
1.194 | 0.934 |  |  | 1.145 | 0.806 |  |  |  |  |  | 1.227 |  |  |  | CN(C)CCCN1c2ccccc2CCc2ccccc21 [IMIPRAMINE] |  | 
 |  |  |  |  |  |  |  |  |  |  |  |  |  | 3.076 | CN1CCN(CCCN2c3ccccc3Sc3ccc(C(F)(F)F)cc32)CC1 [TRIFLUOPERAZINE] | 2.58 | pKa [2]: 8.1; logD [21]: 1.77; Activity [22]: 1.69; Papp [23]: 3.9; logD [24]: 1.96
 |  |  |  |  |  |  |  |  |  |  |  |  |  | 2.767 | CN1CCN(CCCN2c3ccccc3Sc3ccc(Cl)cc32)CC1 [PROCHLORPERAZINE] |  | pKa [2]: 8.1; Log k' [16]: 1.571; Log k' [26]: 2.292; Log k' [17]: 1.907; Papp [27]: 2.4; Log 1/ED50 [28]: 2.75; BSA binding [29]: 3.83
1.045 |  | 1.8 |  |  |  |  |  |  |  |  |  | 1.84 | 1.78 |  | CN1CCCCC1CCN1c2ccccc2Sc2ccc([S+](C)[O-])cc21 (stereo not drawn) [MESORIDAZINE] |  | Log k' [19]: 0.923
1.378 | 1.117 | 2.48 | 0.505 |  | 0.907 | 1.465 | 2.54 | 0.927 | 1.351 | 1.252 | 1.345 |  |  |  | CN(C)CCCN1c2ccccc2Sc2ccccc21 [PROMAZINE] |  | pKa [2]: 9.42; Log k' [26]: 1.47; Papp [27]: 2.15; Log 1/ED50 [28]: 2.05; Log K [29]: 3.21
0.183 | 0.325 | 1.47 |  | 0.701 |  | 0.701 | 1.31 | 0.007 | 0.234 |  |  | 1.44 | 1.48 |  | CCN(CC)CCOc1ccc2c(c1)C(=O)c1cc(OCCN(CC)CC)ccc1-2 [TILORONE] |  | Log k' [30]: -0.412; Log k' [31]: 0.113; Log k' [32]: 0.051; Log k' [33]: 0.229; logD [13]: 1.47
